Reference: the NIST ThermoML archive (doi:10.1016/j.jct.2013.01.033)
± gives the expanded uncertainty stated by the source.

How the values were obtained:
[1] = 101.33 kPa, Liquid, Vibrating tube method
[2] = refractive index (Na D-line) (dimensionless); details: 293.15 K; 101.33 kPa; Liquid; Standard Abbe refractometry

| Structure (SMILES) | mass density ([1]; 298.15 K) | mass density ([1]; 308.15 K) | mass density ([1]; 318.15 K) | mass density ([1]; 328.15 K) | mass density ([1]; 338.15 K) | mass density ([1]; 348.15 K) | refractive index [2] |
| --- | --- | --- | --- | --- | --- | --- | --- |
| CCCC[N+]1(C)CCCC1.N#CC(=C=[N-])C#N [1-butyl-1-methylpyrrolidinium tricyanomethanide] | 1006.71 ± 0.85 kg/m3 | 1000.55 ± 0.84 kg/m3 | 994.44 ± 0.83 kg/m3 | 988.41 ± 0.82 kg/m3 | 982.44 ± 0.82 kg/m3 | 976.52 ± 0.81 kg/m3 |  |
| CCCO [propan-1-ol] |  |  |  |  |  |  | 1.38432 ± 0.0007 |
